Where a name gives a salt, the structure may show the parent alone.
What follows are compounds tested against T1, small-conductance Ca2+-activated K+ channels (SK channels, subtype 2) (Homo sapiens, UniProt Q9H2S1) (assay: whole-cell patch-clamp of ionic current through SK2 channels in HEK293 cells (SC100)). Conditions: concentration that increases the basal current by 100%; HEK293 cells expressing SK2 channels.
T1 construct: expressed in transfected cells; host or cells: HEK293
Format: cell-based
Procedure: The biological activity was determined as follows. The ionic current through small-conductance Ca^2+-activated K^+ channels (SK channels, subtype 2) was measured using the whole-cell configuration of the patch-clamp technique in a patch-clamp set-up using HEK293 tissue culture cells expressing SK2 channels as described in Hougaard et al., British Journal of Pharmacology 151, 655-665, May 8, 2007, the entire teachings of which are incorporated herein by reference. In one aspect, a compound is defined to be an SK PAM if the compound increases current in this assay, for example, if the SC100 value of the compound is less than or equal to 10 μM as determined by this assay. The SC100 value is defined to be the concentration of compound that increases the basal current by 100%.

| SC100 | SMILES |
| --- | --- |
| + (+ means >1 uM) | Cc1cc(C)n(-c2cc(NC3CCN(C)C3=O)cc(NC3CCC(F)(F)CC3)n2)n1 (racemic) [Compound 135, 3-((2-((4,4-difluorocyclohexyl)amino)-6-(3,5-dimethyl-1H-pyrazol-1-yl)pyridin-4-yl)amino)-1-methylpyrrolidin-2-one] |
| ++ (++ means 200 nM-1000 nM) | Cc1cc(C)n(-c2nc(NC3CCC(F)(F)CC3)cc(N3CCO[C@H](CO)C3)n2)n1 (single isomer, unassigned) [Compound 113, (−)-(4-(6-((4,4-difluorocyclohexyl)amino)-2-(3,5-dimethyl-1H-pyrazol-1-yl)pyrimidin-4-yl)morpholin-2-yl)methanol] |
| + (+ means >1 uM) | Cc1cc(C)n(-c2cc(N[C@H]3CCN(C)C3=O)cc(NC3CCC(F)(F)CC3)n2)n1 (single isomer, unassigned) [Compound 138, (+)-3-((2-((4,4-difluorocyclohexyl)amino)-6-(3,5-dimethyl-1H-pyrazol-1-yl)pyridin-4-yl)amino)-1-methylpyrrolidin-2-one] |
| ++ (++ means 200 nM-1000 nM) | Cc1csc(-c2nc(NC3CCC(F)(F)CC3)cc([C@H](C)O)n2)n1 (single isomer, unassigned) [Compound 363] |
| ++ (++ means 200 nM-1000 nM) | CC(=O)N1CCN(c2cc(-n3nc(C)cc3C)nc(NC3CCC(F)(F)CC3)n2)CC1 [Compound 101, 1-(4-(2-((4,4-difluorocyclohexyl)amino)-6-(3,5-dimethyl-1H-pyrazol-1-yl)pyrimidin-4-yl)piperazin-1-yl)ethan-1-one] |
| + (+ means >1 uM) | Cc1cc(C)n(-c2nc(NC3CCC(F)(F)CC3)cc(N3C[C@H]4CC3CN4)n2)n1 [Compound 103, 6-((4R)-2,5-diazabicyclo [2.2.1]heptan-2-yl)-N-(4,4-difluorocyclohexyl)-2-(3,5-dimethyl-1H-pyrazol-1-yl)pyrimidin-4-amine hydrochloride salt] |
| + (+ means >1 uM) | Cc1cc(C)n(-c2cc(N3CC4(COC4)C3)nc(NC3CCC(F)(F)CC3)n2)n1 [Compound 108, N-(4,4-difluorocyclohexyl)-4-(3,5-dimethyl-1H-pyrazol-1-yl)-6-(2-oxa-6-azaspiro[3.3]heptan-6-yl)pyrimidin-2-amine] |
| + (+ means >1 uM) | CCc1cnc(-n2nc(C)cc2C)nc1NC1CCC(F)(F)CC1 [Compound 111, N-(4,4-difluorocyclohexyl)-2-(3,5-dimethyl-1H-pyrazol-1-yl)-5-ethylpyrimidin-4-amine] |
| + (+ means >1 uM) | Cc1cc(C)n(-c2nc(NC3CCC(F)(F)CC3)cc(N3CCOC(C(N)=O)C3)n2)n1 (centres unmarked) [Compound 115, 4-(6-((4,4-difluorocyclohexyl)amino)-2-(3,5-dimethyl-1H-pyrazol-1-yl)pyrimidin-4-yl)morpholine-2-carboxamide] |
| ++ (++ means 200 nM-1000 nM) | Cc1cc(C)n(-c2nc(NC3CCC(F)(F)CC3)cc(-n3cccn3)n2)n1 [Compound 117, N-(4,4-difluorocyclohexyl)-2-(3,5-dimethyl-1H-pyrazol-1-yl)-6-(1H-pyrazol-1-yl)pyrimidin-4-amine] |

More lines, now with the values behind:

| SMILES | SC100 |
| --- | --- |
| Cc1cc(C)n(-c2nc(NC3CCC(F)(F)CC3)cc(N3CCOC(CO)C3)n2)n1 (racemic) [Compound 110, (4-(6-((4,4-difluorocyclohexyl)amino)-2-(3,5-dimethyl-1H-pyrazol-1-yl)pyrimidin-4-yl)morpholin-2-yl)methanol] | ++ (++ means 200 nM-1000 nM) |
| Cc1csc(-c2nc(NC3CCC(F)(F)CC3)cc(C(C)O)n2)n1 (racemic) [Compound 362, 1-(6-((4,4-difluorocyclohexyl)amino)-2-(4-methylthiazol-2-yl)pyrimidin-4-yl)ethan-1-ol] | ++ (++ means 200 nM-1000 nM) |
| Cc1cc(C)n(-c2nc(NC3CCC(F)(F)CC3)cc([C@H]3COCC[C@H]3O)n2)n1 (relative stereo) [Compound 257, (−)-3-(6-((4,4-difluorocyclohexyl)amino)-2-(3,5-dimethyl-1H-pyrazol-1-yl)pyrimidin-4-yl)tetrahydro-2H-pyran-4-ol] | + (+ means >1 uM) |
| Cc1cc(C)n(-c2nc(NC3CCC(F)(F)CC3)cc(N3CCO[C@@H](CO)C3)n2)n1 (single isomer, unassigned) [Compound 112, (+)-(4-(6-((4,4-difluorocyclohexyl)amino)-2-(3,5-dimethyl-1H-pyrazol-1-yl)pyrimidin-4-yl)morpholin-2-yl)methanol] | ++ (++ means 200 nM-1000 nM) |
| Cc1cc(C)n(-c2nc(NC3CCC(F)(F)CC3)cc(N[C@H]3CCN(C)C3=O)n2)n1 (single isomer, unassigned) [Compound 128, (+)-3-((6-((4,4-difluorocyclohexyl)amino)-2-(3,5-dimethyl-1H-pyrazol-1-yl)pyrimidin-4-yl)amino)-1-methylpyrrolidin-2-one] | + (+ means >1 uM) |
| Cc1cc(C)n(-c2cc(N[C@@H]3CCN(C)C3=O)cc(NC3CCC(F)(F)CC3)n2)n1 (single isomer, unassigned) [Compound 139, (−)-3-((2-((4,4-difluorocyclohexyl)amino)-6-(3,5-dimethyl-1H-pyrazol-1-yl)pyridin-4-yl)amino)-1-methylpyrrolidin-2-one] | + (+ means >1 uM) |
| Cc1cc(C)n(-c2nc(NC3CCC(F)(F)CC3)cc([C@@H](C)O)n2)n1 (single isomer, unassigned) [Compound 198, (−)1-(6-((4,4-difluorocyclohexyl)amino)-2-(3,5-dimethyl-1H-pyrazol-1-yl)pyrimidin-4-yl)ethan-1-ol] | + (+ means >1 uM) |
| Cc1cc(C)n(-c2nc(N[C@H]3CCCC(F)(F)C3)cc([C@@H](C)O)n2)n1 (single isomer, unassigned) [Compound 354] | + (+ means >1 uM) |
| Cc1csc(-c2nc(NC3CCC(F)(F)CC3)cc([C@@H](C)O)n2)n1 (single isomer, unassigned) [Compound 364] | ++ (++ means 200 nM-1000 nM) |
| Cc1cc(C)n(-c2nc(NC3CCC(F)(F)CC3)cc(NC(C(N)=O)C(C)C)n2)n1 (stereo in doubt) [Compound 164, (R)-2-((6-((4,4-difluorocyclohexyl)amino)-2-(3,5-dimethyl-1H-pyrazol-1-yl)pyrimidin-4-yl)amino)-3-methylbutanamide] | + (+ means >1 uM) |
| Cc1cc(C)n(-c2nc(NC3CCC(F)(F)CC3)cc(N3CCNC(C(N)=O)C3)n2)n1 (centres unmarked) [Compound 100, 4-(6-((4,4-difluorocyclohexyl)amino)-2-(3,5-dimethyl-1H-pyrazol-1-yl)pyrimidin-4-yl)piperazine-2-carboxamide] | + (+ means >1 uM) |
| CC(=O)N1CCN(c2cc(NC3CCC(F)(F)CC3)nc(-n3nc(C)cc3C)n2)CC1 [Compound 102, 1-(4-(6-((4,4-difluorocyclohexyl)amino)-2-(3,5-dimethyl-1H-pyrazol-1-yl)pyrimidin-4-yl)piperazin-1-yl)ethan-1-one] | ++ (++ means 200 nM-1000 nM) |
| Cc1cc(C)n(-c2cc(N3C[C@H]4C[C@@H]3CN4)nc(NC3CCC(F)(F)CC3)n2)n1 [Compound 104, 4-((1R,4R)-2,5-diazabicyclo[2.2.1]heptan-2-yl)-N-(4,4-difluorocyclohexyl)-6-(3,5-dimethyl-1H-pyrazol-1-yl)pyrimidin-2-amine] | ++ (++ means 200 nM-1000 nM) |
| Cc1cc(C)n(-c2nc(NC3CCC(F)(F)CC3)cc(N3CC4(COC4)C3)n2)n1 [Compound 105, N-(4,4-difluorocyclohexyl)-2-(3,5-dimethyl-1H pyrazol-1-yl)-6-(2-oxa-6-azaspiro[3.3]heptan-6-yl)pyrimidin-4-amine] | + (+ means >1 uM) |
| Cc1cc(C)n(-c2cc(N3CCNC(C(N)=O)C3)nc(NC3CCC(F)(F)CC3)n2)n1 (centres unmarked) [Compound 106, 4-(2-((4,4-difluorocyclohexyl)amino)-6-(3,5-dimethyl-1H-pyrazol-1-yl)pyrimidin-4-yl)piperazine-2-carboxamide] | ++ (++ means 200 nM-1000 nM) |
| Cc1cc(C)n(-c2cc(NC(C)C(N)=O)nc(NC3CCC(F)(F)CC3)n2)n1 (centres unmarked) [Compound 107, 2-((2-((4,4-difluorocyclohexyl)amino)-6-(3,5-dimethyl-1H-pyrazol-1-yl)pyrimidin-4-yl)amino)propanamide] | + (+ means >1 uM) |
| Cc1cc(C)n(-c2nc(NC3CCC(F)(F)CC3)cc(NC(C)C(N)=O)n2)n1 (centres unmarked) [Compound 109, 2-((6-((4,4-difluorocyclohexyl)amino)-2-(3,5-dimethyl-1H-pyrazol-1-yl)pyrimidin-4-yl)amino)propanamide] | + (+ means >1 uM) |
| Cc1cc(C)n(-c2cc(N3CCOC(C(N)=O)C3)nc(NC3CCC(F)(F)CC3)n2)n1 (centres unmarked) [Compound 114, 4-(2-((4,4-difluorocyclohexyl)amino)-6-(3,5-dimethyl-1H-pyrazol-1-yl)pyrimidin-4-yl)morpholine-2-carboxamide] | + (+ means >1 uM) |
| Cc1cc(C)n(-c2nc3c(c(NC4CCC(F)(F)CC4)n2)CCN(Cc2ccccc2)C3)n1 [Compound 116] | ++ (++ means 200 nM-1000 nM) |

Same assay, conditions: whole-cell patch-clamp, HEK293 cells expressing SK2 channels; concentration that increases the basal current by 100%

| SC100 (μM) | SMILES |
| --- | --- |
| ++ (++ means 200 nM-1000 nM) | Cc1csc(-c2cc(N(C)C)cc(NC3CCC(F)(F)CC3)n2)n1 |
| + (+ means >1 uM) | FCc1ccn(-c2nc(NC3CC=CCC3)cc(N3CCOCC3)n2)n1 (centres unmarked) |
| + (+ means >1 uM) | FCc1ccn(-c2nc(NC3CCC(F)CC3)cc(N3CCOCC3)n2)n1 (centres unmarked) |
